From US11806393B2, “Flavivirus peptide sequences, epitopes, and methods and uses thereof” (priority 2017, dated 2023)
Ends that are not written are not given here.

Experiments:
[1] = system: splenocytes pulsed with ZIKV-derived peptides (target cells); assay type: in vivo, mouse; details: LysMCre+IFNARfl/fl mice infected with MR766 or FSS13025, day 7; targets pulsed with the three peptides; 12 h
Procedure: LysMCre^+IFNAR^fl/fl and WT mice were infected with 10^4 FFU of MR766 or FSS13025. Seven days post-infection, splenocytes were harvested from naïve donor mice, followed by stimulation with a pool of H-2b-restricted ZIKV-peptides (PrM169-177(SEQ ID NO: 19), E297-305 (SEQ ID NO: 25), N552783-2792 (SEQ ID NO: 20)) referred to as “Target Cells” or with DMSO for 3 h at 37° C. The cells were washed and labeled with CSFE (Invitrogen) in PBS/0.1% BSA for 10 min at 37° C. Target cells were labeled with 1 μM CSFE (High) or 100 nM CSFE (Low) for unstimulated cells. After washing, 10^7 of labeled cells (5×10^6 of each population) were injected intravenously into MOCK and infected recipients. Splenocytes from recipients were harvested 4 (Wild type) or 12 h later (LysMCre^+IFNAR^fl/fl) and analyzed by flow cytometry. The percentage of killing is calculated as followed: 100−(% ZIKV-peptide stimulated in infected mice/% DMSO-stimulated in infected mice)/(% ZIKV-peptide stimulated in naïve mice/% DMSO-stimulated in naïve mice)×100).
The following results are with respect to FIG. 7A to FIG. 7E, where WT C57BL/6 mice treated with type I IFN receptor-blocking antibody on day 1 prior to infection were inoculated with 10^4 FFU of ZIKV strain MR766 (n=3) or FSS (n=3), or injected with 10% FBS/PBS (MOCK, n=2). […] Four independent experiments for MR766 (n=8 mice per experiment) and two independent experiments for FSS13025 (n=8 mice per experiment) were performed in triplicate for each peptide. The data are expressed as the mean of spot forming cells (SFC) per 10^6 CD8^+ T cells. One-way ANOVA was used to compare the mean of each peptide with the control (DMSO). […] Pooled data from two independent experiments are shown. The dotted line corresponds to the average value obtained by MOCK after stimulation (0.43% of IFNγ^+CD8^+ T cells). Splenocytes were harvested on day 7 post-infection, followed by stimulation with 1 μg of IFNγ-ELISPOT-positive ZIKV-derived peptides in presence of Brefeldin A (BFA) and CD107a for 4 hours, and the production of IFNγ and TNFα was assessed via ICS. […]

CD8+ T cells [2] = experiment: ICS, LysMCre+IFNARfl/fl mice; assay type: cell-based, mouse; details: LysMCre+IFNARfl/fl mice infected with MR766 or FSS13025
Procedure: (§1) For intracellular cytokine staining (ICS), splenocytes were counted after red blood cell lysis and resuspended in 10% FBS/RPMI medium at 40×10^6 cells per ml. Splenocytes (2×10^6) were plated and stimulated with 1 μg of individual peptide as previously detailed (Elong Ngono et al., 2016). Positive (PMA-Ionomycin) and negative (No stimulation) controls were added for all experiments. Cells were labeled with anti-CD3 (Clone 145-2C11), anti-CD8 (clone 53-67), anti-CD44 (clone IM7), and anti-CD62L (clone Mel-14). Cells then were fixed and permeabilized, followed by staining with anti-granzyme B (clone NGZB), anti-IFNγ (clone XMG 1.2) and anti-TNFα(clone MP6-XT22). Samples were read on an LSR II (BD Biosciences) and were analyzed using FLOWJO™ software X 10.0.7 (Tree Star, Ashland, Oreg.).
The following results are with reference to FIG. 3A and FIG. 3B, where five-week-old LysMCre^+IFNAR^fl/fl were infected retro-orbitally with 10^4 FFU of ZIKV MR766 or FSS13025. […] A total of 244 peptides from ZIKV strains predicted to bind H-2Kb and H-2db with high affinity were screened. Two independent experiments for each ZIKV strain (n=5 mice for each experiment) were performed in triplicate per peptide. The data are expressed as the mean of spot forming cells (SFC) per 10^6 CD8^+ T cells, and error bars are represented as SEM. […]

CD8+ T cells [3] = details: H-2b restricted; cited from earlier work
CD8+ T cells [4] = experiment: Intracellular cytokine staining (ICS), WT C57BL/6 mice treated with IFNAR-blocking antibody; assay type: cell-based, mouse; details: splenocytes day 7 after MR766 or FSS13025; four peptides shared by both strains, NS31866-1874 MR766 only
Procedure: as §1
The following results are with respect to FIG. 7A to FIG. 7E, where WT C57BL/6 mice treated with type I IFN receptor-blocking antibody on day 1 prior to infection were inoculated with 10^4 FFU of ZIKV strain MR766 (n=3) or FSS (n=3), or injected with 10% FBS/PBS (MOCK, n=2). […] The data are expressed as the mean of spot forming cells (SFC) per 10^6 CD8^+ T cells. […] Splenocytes were harvested on day 7 post-infection, followed by stimulation with 1 μg of IFNγ-ELISPOT-positive ZIKV-derived peptides in presence of Brefeldin A (BFA) and CD107a for 4 hours, and the production of IFNγ and TNFα was assessed via ICS. […]

Sequence	in vivo cytotoxicity against peptide-pulsed splenocytes [1]	immunodominance of epitopes (IFNγ+TNFα+ and CD107a+IFNγ+ ICS) (CD8+ T cells [2])	cross-reactivity with CD8+ T cells induced in DENV2-infected mice (CD8+ T cells [3])	frequency of IFNγ-producing CD8+ T cells (ICS) (CD8+ T cells [4])
SNRDFVEGM [SEQ ID NO 25]	high percentage of cytotoxicity			
ATMSYECPM [SEQ ID NO 19]	high percentage of cytotoxicity			
IGVSNRDFV [SEQ ID NO 21]		immunodominant epitopes	cross-reactive	induced a high frequency of IFNγ-expressing cells
CAEAPNMKVI [SEQ ID NO 20]	high percentage of cytotoxicity			
PSVRNGNEI [SEQ ID NO 5]			cross-reactive	induced a high frequency of IFNγ-expressing cells
